Where two headings read alike, the source gives them in different places.
Tested on: IL-8
Experiment: Glucocorticoid transrepression assay, IL-8 inhibition (TR)
Format: cell-based
Conditions: Homo sapiens, NCl-H292 cells, TNFα 10 ng/ml; for Emax: read-out: IL-8 inhibition (TR) Emax % inhibition
Method: Human Lung epithelial cell line NCl-H292 cells were dissociated from stock flask using 0.05% trypsin/0.53 mM EDTA. Cells were suspended in complete medium and counted. Cells were plated in 96-well flat-bottom plates at 20K cells /well in 0.2 ml/well. Plates were incubated for 24-48 hours until cells were between 75-90% confluent. Medium was aspirated and replaced with medium containing various concentrations of steroids or antagonists. After 1 hour incubation at 37°, TNFα (10 ng/ml final concentration in 0.2 ml) was added and the cells incubated overnight. Control wells with and without TNF were included on each plate, as well as wells with TNF in addition to a maximum (10 μM) concentration of dexamethasone. The cell culture medium was sampled and IL-6 and IL-8 cytokine production was measured using the MSD Multi-Spot immunoassay.

CC12Cc3cnn(-c4ccc(F)cc4)c3C=C1CCC1C2[C@@H](O)CC2(C)C1CC[C@]2(O)C(=O)Cn1cc(-c2cccnc2)nn1 (stereo partly drawn) [Compound 1]
IC50 (Table 6): 0.06 to 20 nM | Emax (Table 6): > 80%

CC12Cc3cnn(-c4ccc(F)cc4)c3C=C1CCC1C2[C@@H](O)CC2(C)C1CC[C@]2(O)C(=O)Nc1nc2cccnc2s1 (stereo partly drawn) [Compound 1]
IC50 (Table 2): 0.06 to 20 nM | Emax (Table 2): > 80%

C[C@]12Cc3cnn(-c4ccc(F)cc4)c3C=C1CCC1C2[C@@H](O)C[C@@]2(C)C1CC[C@]2(O)C(=O)CN1CCN(c2nc3ccccc3o2)CC1 (stereo partly drawn) [Compound 1]
IC50 (Table 5): 0.06 to 20 nM | Emax (Table 5): > 80%

C[C@]12Cc3cnoc3C=C1CCC1C2[C@@H](O)C[C@@]2(C)C1CC[C@]2(O)C(=O)CSc1nc2ccccc2o1 (stereo partly drawn) [Compound 1]
Emax (Table 3): < 60%

C#CCN1CCN(CC(=O)[C@@]2(O)CCC3C4CCC5=Cc6c(cnn6-c6ccc(F)cc6)C[C@]5(C)C4[C@@H](O)C[C@@]32C)CC1 (stereo partly drawn) [Compound 2]
Emax (Table 5): < 60%

CC12Cc3cnn(-c4ccc(F)cc4)c3C=C1CCC1C2[C@@H](O)CC2(C)C1CC[C@]2(O)C(=O)Cn1cc(Cc2ccccc2)nn1 (stereo partly drawn) [Compound 2]
IC50 (Table 6): 0.06 to 20 nM | Emax (Table 6): > 80%

CC12Cc3cnn(-c4ccc(F)cc4)c3C=C1CCC1C2[C@@H](O)CC2(C)C1CC[C@]2(O)C(=O)Nc1nc2ccccc2s1 (stereo partly drawn) [Compound 2]
IC50 (Table 2): 0.06 to 20 nM | Emax (Table 2): > 80%

C[C@]12Cc3cnoc3C=C1CCC1C2[C@@H](O)C[C@@]2(C)C1CC[C@]2(O)C(=O)CSc1cnc2ccccc2n1 (stereo partly drawn) [Compound 2]
Emax (Table 3): < 60%

Cn1c(SCC(=O)[C@@]2(O)CCC3C4CCC5=Cc6c(cnn6-c6ccc(F)cc6)CC5(C)C4[C@@H](O)CC32C)nc2ccccc21 (stereo partly drawn) [Compound 2]
IC50 (Table 1): 0.06 to 20 nM | Emax (Table 1): > 80%

CC12Cc3cnn(-c4ccc(F)cc4)c3C=C1CCC1C2[C@@H](O)CC2(C)C1CC[C@]2(O)C(=O)NCc1ccccc1 (stereo partly drawn) [Compound 3]
IC50 (Table 2): 0.06 to 20 nM | Emax (Table 2): > 80%

CCOC(=O)c1cnn(CC(=O)[C@@]2(O)CCC3C4CCC5=Cc6c(cnn6-c6ccc(F)cc6)CC5(C)C4[C@@H](O)CC32C)c1 (stereo partly drawn) [Compound 3]
IC50 (Table 7): 0.06 to 20 nM | Emax (Table 7): > 80%

C[C@]12Cc3cnn(-c4ccc(F)cc4)c3C=C1CCC1C2[C@@H](O)C[C@@]2(C)C1CC[C@]2(O)C(=O)CN1CCN(c2ccccn2)CC1 (stereo partly drawn) [Compound 3]
IC50 (Table 5): 0.06 to 20 nM | Emax (Table 5): > 80%

C[C@]12Cc3cnoc3C=C1CCC1C2[C@@H](O)C[C@@]2(C)C1CC[C@]2(O)C(=O)CSc1ccccn1 (stereo partly drawn) [Compound 3]
Emax (Table 3): < 60%

C[C@]12Cc3cnn(-c4ccc(F)cc4)c3C=C1CCC1C2[C@@H](O)C[C@@]2(C)C1CC[C@]2(O)C(=O)CN1CCN(c2ncccn2)CC1 (stereo partly drawn) [Compound 4]
IC50 (Table 5): 0.06 to 20 nM | Emax (Table 5): > 80%

C[C@]12Cc3cnn(-c4ccc(F)cc4)c3C=C1CCC1C2[C@@H](O)C[C@@]2(C)C1CC[C@]2(O)C(=O)NC1(c2ccccc2)CC1 (stereo partly drawn) [Compound 4]
IC50 (Table 2): 0.06 to 20 nM | Emax (Table 2): > 80%

C[C@]12Cc3cnoc3C=C1CCC1C2[C@@H](O)C[C@@]2(C)C1CC[C@]2(O)C(=O)CSc1ccc2ccccc2n1 (stereo partly drawn) [Compound 4]
Emax (Table 3): < 60%

Cc1cnn(CC(=O)[C@@]2(O)CCC3C4CCC5=Cc6c(cnn6-c6ccc(F)cc6)CC5(C)C4[C@@H](O)CC32C)c1 (stereo partly drawn) [Compound 4]
IC50 (Table 7): 0.06 to 20 nM | Emax (Table 7): > 80%

C#CCNC(=O)[C@@]1(O)CCC2C3CCC4=Cc5c(cnn5-c5ccc(F)cc5)C[C@]4(C)C3[C@@H](O)C[C@@]21C (stereo partly drawn) [Compound 5]
IC50 (Table 2): 0.06 to 20 nM | Emax (Table 2): > 80%

CC12Cc3cnn(-c4ccc(F)cc4)c3C=C1CCC1C2[C@@H](O)CC2(C)C1CC[C@]2(O)C(=O)CSc1ccccn1 (stereo partly drawn) [Compound 5]
IC50 (Table 1): 0.06 to 20 nM | Emax (Table 1): > 80%

C[C@]12Cc3cnn(-c4ccc(F)cc4)c3C=C1CCC1C2[C@@H](O)C[C@@]2(C)C1CC[C@]2(O)C(=O)CN1CCN(Cc2ccc(C(F)(F)F)cc2)CC1 (stereo partly drawn) [Compound 5]
IC50 (Table 5): 0.06 to 20 nM | Emax (Table 5): > 80%

Cn1c(SCC(=O)[C@@]2(O)CCC3C4CCC5=Cc6oncc6C[C@]5(C)C4[C@@H](O)C[C@@]32C)nc2ccccc21 (stereo partly drawn) [Compound 5]
IC50 (Table 3): 401 to 1000 nM | Emax (Table 3): < 60%

CC12Cc3cnn(-c4ccc(F)cc4)c3C=C1CCC1C2[C@@H](O)CC2(C)C1CC[C@]2(O)C(=O)CSc1cnc2ccccc2n1 (stereo partly drawn) [Compound 6]
IC50 (Table 1): 0.06 to 20 nM | Emax (Table 1): > 80%

C[C@@H](NC(=O)[C@@]1(O)CCC2C3CCC4=Cc5c(cnn5-c5ccc(F)cc5)C[C@]4(C)C3[C@@H](O)C[C@@]21C)c1ccccc1 (stereo partly drawn) [Compound 6]
IC50 (Table 2): 0.06 to 20 nM | Emax (Table 2): > 80%

C[C@]12Cc3cnoc3C=C1CCC1C2[C@@H](O)C[C@@]2(C)C1CC[C@]2(O)C(=O)CSc1nc2ccccc2s1 (stereo partly drawn) [Compound 6]
Emax (Table 3): < 60%

CC12Cc3cnn(-c4ccc(F)cc4)c3C=C1CCC1C2[C@@H](O)CC2(C)C1CC[C@]2(O)C(=O)CSc1ncccn1 (stereo partly drawn) [Compound 7]
IC50 (Table 1): 0.06 to 20 nM | Emax (Table 1): > 80%

C[C@@H](NC(=O)[C@@]1(O)CCC2C3CCC4=Cc5c(cnn5-c5ccc(F)cc5)C[C@]4(C)C3[C@@H](O)C[C@@]21C)c1cccc2ccccc12 (stereo partly drawn) [Compound 7]
IC50 (Table 2): 0.06 to 20 nM | Emax (Table 2): > 80%

C[C@]12Cc3cnn(-c4ccc(F)cc4)c3C=C1CCC1C2[C@@H](O)C[C@@]2(C)C1CC[C@]2(O)C(=O)NC1(c2ncc(F)cc2F)CC1 (stereo partly drawn) [Compound 8]
IC50 (Table 2): 0.06 to 20 nM | Emax (Table 2): > 80%

CC12Cc3cnn(-c4ccc(F)cc4)c3C=C1CCC1C2[C@@H](O)CC2(C)C1CC[C@]2(O)C(=O)CC#N (stereo partly drawn) [Compound 9]
IC50 (Table 1): 0.06 to 20 nM | Emax (Table 1): > 80%

C[C@@H](NC(=O)[C@@]1(O)CCC2C3CCC4=Cc5c(cnn5-c5ccc(F)cc5)C[C@]4(C)C3[C@@H](O)C[C@@]21C)c1ccccn1 (stereo partly drawn) [Compound 9]
IC50 (Table 2): 0.06 to 20 nM | Emax (Table 2): > 80%

CC12Cc3cnn(-c4ccc(F)cc4)c3C=C1CCC1C2[C@@H](O)CC2(C)C1CC[C@]2(O)C(=O)CSc1nc2cccnc2s1 (stereo partly drawn) [Compound 10]
IC50 (Table 1): 0.06 to 20 nM | Emax (Table 1): > 80%

C[C@]12Cc3cnn(-c4ccc(F)cc4)c3C=C1CCC1C2[C@@H](O)C[C@@]2(C)C1CC[C@]2(O)C(=O)NCc1ccc2nccn2c1 (stereo partly drawn) [Compound 10]
IC50 (Table 2): 0.06 to 20 nM | Emax (Table 2): > 80%

CC12Cc3cnn(-c4ccc(F)cc4)c3C=C1CCC1C2[C@@H](O)CC2(C)C1CC[C@]2(O)C(=O)CSc1nccc2ccccc12 (stereo partly drawn) [Compound 11]
IC50 (Table 1): 0.06 to 20 nM | Emax (Table 1): > 80%

C[C@]12Cc3cnn(-c4ccc(F)cc4)c3C=C1CCC1C2[C@@H](O)C[C@@]2(C)C1CC[C@]2(O)C(=O)NCCc1cnccn1 (stereo partly drawn) [Compound 11]
IC50 (Table 2): 0.06 to 20 nM | Emax (Table 2): > 80%

C[C@]12Cc3cnn(-c4ccc(F)cc4)c3C=C1CCC1C2[C@@H](O)C[C@@]2(C)C1CC[C@]2(O)C(=O)NCCc1nc2ccccc2o1 (stereo partly drawn) [Compound 12]
IC50 (Table 2): 0.06 to 20 nM | Emax (Table 2): > 80%

C[C@H](NC(=O)[C@@]1(O)CCC2C3CCC4=Cc5c(cnn5-c5ccc(F)cc5)C[C@]4(C)C3[C@@H](O)C[C@@]21C)c1ccccc1 (stereo partly drawn) [Compound 13]
IC50 (Table 2): 0.06 to 20 nM | Emax (Table 2): > 80%

CC12Cc3cnn(-c4ccc(F)cc4)c3C=C1CCC1C2[C@@H](O)CC2(C)C1CC[C@]2(O)C(=O)NCc1cn(Cc2ccccc2)nn1 (stereo partly drawn) [Compound 14]
IC50 (Table 2): 0.06 to 20 nM | Emax (Table 2): > 80%

Cn1c(SCC(=O)[C@@]2(O)CCC3C4CCC5=Cc6c(cnn6-c6ccccc6)CC5(C)C4[C@@H](O)CC32C)nc2ccccc21 (stereo partly drawn) [Compound 14]
IC50 (Table 1): 0.06 to 20 nM | Emax (Table 1): > 80%

CC12Cc3cnn(-c4ccccc4)c3C=C1CCC1C2[C@@H](O)CC2(C)C1CC[C@]2(O)C(=O)CSc1ccc2ccccc2n1 (stereo partly drawn) [Compound 15]
IC50 (Table 1): 0.06 to 20 nM | Emax (Table 1): > 80%

C[C@H](NC(=O)[C@@]1(OC(=O)c2ccco2)CCC2C3CCC4=Cc5c(cnn5-c5ccc(F)cc5)CC4(C)C3[C@@H](O)CC21C)c1cccc2ccccc12 (stereo partly drawn) [Compound 15]
IC50 (Table 2): 0.06 to 20 nM | Emax (Table 2): > 80%

CC12Cc3cnn(-c4ccccc4)c3C=C1CCC1C2[C@@H](O)CC2(C)C1CC[C@]2(O)C(=O)CSc1ccccn1 (stereo partly drawn) [Compound 16]
IC50 (Table 1): 0.06 to 20 nM | Emax (Table 1): > 80%

C[C@H](NC(=O)[C@@]1(OC(=O)c2ccco2)CCC2C3CCC4=Cc5c(cnn5-c5ccc(F)cc5)CC4(C)C3[C@@H](O)CC21C)c1ccccc1 (stereo partly drawn) [Compound 16]
IC50 (Table 2): 0.06 to 20 nM | Emax (Table 2): > 80%

CC12Cc3cnn(-c4ccc(F)cc4)c3C=C1CCC1C2[C@@H](O)CC2(C)C1CC[C@]2(OC(=O)c1ccco1)C(=O)NCCc1cnccn1 (stereo partly drawn) [Compound 17]
IC50 (Table 2): 0.06 to 20 nM | Emax (Table 2): > 80%

CC12Cc3cnn(-c4ccc(F)cc4)c3C=C1CCC1C2[C@@H](O)CC2(C)C1CC[C@]2(O)C(=O)Nc1nc2ccc(S(N)(=O)=O)cc2s1 (stereo partly drawn) [Compound 18]
IC50 (Table 2): 0.06 to 20 nM | Emax (Table 2): > 80%

CC12Cc3cnn(-c4ccc(F)cc4)c3C=C1CCC1C2[C@@H](O)CC2(C)C1CC[C@]2(O)C(=O)N[C@H](CO)CCc1ccccc1 (stereo partly drawn) [Compound 19]
IC50 (Table 2): 0.06 to 20 nM | Emax (Table 2): > 80%

CC12Cc3cnn(-c4ccccc4)c3C=C1CCC1C2[C@@H](O)CC2(C)C1CC[C@]2(O)C(=O)CSc1nc2ccccc2o1 (stereo partly drawn) [Compound 19]
IC50 (Table 1): 401 to 1000 nM | Emax (Table 1): < 60%
